Key:
NCI-N87 [1] = assay: Incucyte proliferation, single agents and combinations, NCI-N87; assay type: cell-based; conditions: Homo sapiens, NCI-N87, 96 h; read-out: Reduction/inhibition of cell proliferation
Method: (A–C) Proliferation curves of HER2‐positive (SKBR3, A; BT474, B; NCI‐N87, C) cancer cell lines treated or not with ebselen oxide (10 μM), lapatinib (10–1000 nM), or combination of these agents, as indicated. Proliferation was assessed overtime by Incucyte during 4 days. Data are mean ± SD (n = 8–12) of a representative experiment out of 4 (A), 3 (B), or 2 (C) independent experiments. […] Proliferation was assessed by Incucyte during 4 days. […] Scale bars are […].

gD-HER2-WT = molecular target: T1, gD-HER2-WT (Homo sapiens, UniProt P04626); assay: Western blot of HBMECs overexpressing gD-HER2-WT; assay type: cell-based; conditions: 5 μM, 24 h
T1 construct: expressed in transfected cells; host or cells: HBMEC (human bone marrow endothelial cells)
T1 sequence (P04626 23-1255): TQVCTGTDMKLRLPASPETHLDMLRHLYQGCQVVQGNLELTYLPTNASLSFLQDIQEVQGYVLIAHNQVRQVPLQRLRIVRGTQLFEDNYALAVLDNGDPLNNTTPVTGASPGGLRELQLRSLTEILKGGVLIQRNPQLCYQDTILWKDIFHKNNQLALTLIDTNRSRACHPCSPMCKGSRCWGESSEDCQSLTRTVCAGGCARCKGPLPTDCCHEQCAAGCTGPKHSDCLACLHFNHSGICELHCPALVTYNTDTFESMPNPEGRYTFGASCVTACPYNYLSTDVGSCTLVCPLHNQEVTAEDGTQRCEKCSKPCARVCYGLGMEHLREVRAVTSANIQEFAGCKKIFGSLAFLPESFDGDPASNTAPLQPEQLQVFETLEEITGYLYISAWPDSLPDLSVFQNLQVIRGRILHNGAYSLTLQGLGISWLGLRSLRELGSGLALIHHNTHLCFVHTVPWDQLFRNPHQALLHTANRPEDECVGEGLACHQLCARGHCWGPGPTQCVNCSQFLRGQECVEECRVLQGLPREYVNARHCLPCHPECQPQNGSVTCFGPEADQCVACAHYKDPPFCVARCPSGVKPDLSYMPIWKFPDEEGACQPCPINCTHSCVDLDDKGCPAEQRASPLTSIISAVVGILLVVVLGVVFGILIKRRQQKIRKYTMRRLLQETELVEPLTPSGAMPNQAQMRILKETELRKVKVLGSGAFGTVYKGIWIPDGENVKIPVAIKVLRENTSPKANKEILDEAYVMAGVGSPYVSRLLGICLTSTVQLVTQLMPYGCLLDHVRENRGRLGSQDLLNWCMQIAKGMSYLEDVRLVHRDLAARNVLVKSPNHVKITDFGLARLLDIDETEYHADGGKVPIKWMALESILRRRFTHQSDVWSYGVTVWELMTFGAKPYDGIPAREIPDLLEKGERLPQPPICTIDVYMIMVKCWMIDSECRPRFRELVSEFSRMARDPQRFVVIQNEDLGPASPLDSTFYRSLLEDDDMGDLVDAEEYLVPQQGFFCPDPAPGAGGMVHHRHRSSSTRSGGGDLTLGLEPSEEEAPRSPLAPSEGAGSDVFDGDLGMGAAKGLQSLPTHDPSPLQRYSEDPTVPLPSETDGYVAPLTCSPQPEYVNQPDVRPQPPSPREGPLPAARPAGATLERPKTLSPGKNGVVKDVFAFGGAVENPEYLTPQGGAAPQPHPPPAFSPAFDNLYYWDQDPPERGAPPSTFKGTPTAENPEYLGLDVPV
Method: Human bone marrow endothelial cells (HBMECs) kindly provided by Dr. B. Weksler (Weill Medical College of Cornell University, NY) were cultured as described previously. The human breast cancer cell lines [SKBR3 (RRID:CVCL_0033), BT474 (RRID:CVCL_0179), and MDA‐MB‐231 (RRID:CVCL_0062)], the human gastric [NCI‐87 (RRID:CVCL_1603)] and ovarian [SKOV3 (RRID:CVCL_0532)] cancer cell lines were obtained from the American Type Culture Collection (Manassas, VA) and were maintained in DMEM containing 10% FBS. All cell lines were cultured under 5% CO2 at 37 °C. HBMECs were transfected using Amaxa Inc nucleofector system (Kit V and U015 program). FBS was decreased to 1% to analyze HER2 activation status and HER2‐dependent cell proliferation in SKOV3 as previously described. Periodic tests for Mycoplasma and authentication were performed using commercially available kits.

NCI-N87 [2] = assay: Proliferation of NCI-N87 cells; assay type: cell-based, human; conditions: ebselen oxide 7–10 μM, AG1478 5 μM
Method: Fig. 3 Ebselen oxide inhibits HER2 activation and HER2‐dependent proliferation in gastric and ovarian HER2^+ cancer cells. (A) HER2‐positive NCI‐87 gastric cancer cells were treated with ebselen oxide (0–20 μM) for 24 h, lysed, and analyzed by western blot using anti‐pY1248‐HER2, HER2, and β‐tubulin antibodies. A representative western blot is shown out of 4 independent experiments. (B) HER2‐positive SKOV3 ovarian cancer cells were treated with ebselen oxide (0–10 μM) for 24 h, lysed, and analyzed by western blot using anti‐pY1248‐HER2, HER2, and ezrin antibodies. A western blot is shown (n = 1). (C, D) Proliferation curves of NCI‐N87 gastric (C) or SKOV3 ovarian (D) cancer cells treated with vehicle or 7–10 μM ebselen oxide measured by MTT assay. Data are mean ± SEM (n = 9–12) of three independent experiments.
Supplementary figure 4: NCI-N87 and SKOV3 cancer cell lines are addicted to the HER2 pathway
(A) NCI-N87 cells were treated (+) or not (-) with a non-specific HER2 inhibitor AG1478 (5 µM). Whole cell lysates were analyzed by western blot with pY1248 HER2, HER2 and pERK antibodies.
(B) SKOV3 cells were treated (+) or not (-) with a non-specific HER2 inhibitor AG1478 (5 µM). Whole cell lysates were analyzed by western blot with pY1248 HER2, HER2, pERK or beta-tubulin antibodies.
(C) Proliferation curves of NCI-N87 treated or not with AG1478 (5 µM). Data are mean ± sem (n=4-6). 2- […]

p95HER2 = p95HER2 (Homo sapiens, UniProt P04626); assay: Activation of gD-tagged p95HER2 in HBMECs, western blot; conditions: 5–10 μM, 24 h
Sequence of p95HER2 (P04626 611-1255 limits assumed): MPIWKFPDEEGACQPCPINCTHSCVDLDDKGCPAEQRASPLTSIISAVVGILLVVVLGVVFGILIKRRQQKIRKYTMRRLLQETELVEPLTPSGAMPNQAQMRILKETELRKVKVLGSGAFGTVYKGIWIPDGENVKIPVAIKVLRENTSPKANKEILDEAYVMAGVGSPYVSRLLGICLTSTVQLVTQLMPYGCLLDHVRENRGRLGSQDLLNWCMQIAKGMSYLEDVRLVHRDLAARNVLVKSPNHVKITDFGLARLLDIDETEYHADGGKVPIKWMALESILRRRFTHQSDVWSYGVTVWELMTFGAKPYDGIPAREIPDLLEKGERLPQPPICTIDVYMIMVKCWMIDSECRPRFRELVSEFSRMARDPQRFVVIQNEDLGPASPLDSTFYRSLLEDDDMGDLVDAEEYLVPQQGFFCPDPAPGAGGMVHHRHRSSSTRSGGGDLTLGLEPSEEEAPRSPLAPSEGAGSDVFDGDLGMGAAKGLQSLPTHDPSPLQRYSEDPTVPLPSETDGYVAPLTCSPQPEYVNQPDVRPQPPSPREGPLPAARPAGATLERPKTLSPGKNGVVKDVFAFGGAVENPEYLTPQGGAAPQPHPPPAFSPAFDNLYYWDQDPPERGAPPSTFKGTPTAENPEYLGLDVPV
Method: Cells were washed with cold PBS and lysed in a buffer containing 1% Triton, 50 mM Tris–HCl pH 8.8, 25 mM NaCl, 1 mM EDTA, 1 mM Na3VO4, 1 mM AEBSF, 10 μg·mL^−1 each of aprotinin/leupeptin/pepstatin or lysed in Laemmli buffer. Proteins were separated by SDS/PAGE and transferred to nitrocellulose (Schleicher & Schuell, Keene, NH, USA). Membranes were blocked for 1 h in TBS/0.1% Tween20/3% BSA and probed overnight with indicated antibodies. Peroxidase‐coupled secondary antibodies were used to reveal antibody binding using the ECL substrate (Pierce, Thermo Fisher Scientific, Waltham, MA, USA) and Fusion FX (Vilber Lourmat, Collégien, France) chemoluminescence acquisition system. Quantifications were done with IMAGEJ software (1.53e) (NIH, USA).
Vector encoding wild‐type glycoprotein D‐tagged form of HER2 (gD‐HER2‐WT) [18] was a kind gift of Dr M. Sliwkowski (Genentech, San Francisco, CA, USA). […] Vector encoding the HER2p95 [19] was provided by Dr J. Baselga.
(A–C) Lysates were then analyzed by western blot using antibodies against pY1248 HER2 and HER2. Representative blot and data quantification (mean ± SEM) are shown out of 3 (A), 3 (B), or 4 (C) independent experiments. One‐way ANOVA followed by Dunnett's multiple comparison test, *P < 0.05, **P < 0.01, ***P < 0.001.

[3] = system: HBMECs overexpressing V842I HER2; assay: Proliferation of HBMECs overexpressing V842I HER2 (Incucyte, MTT)
Method: Cell medium was removed and replaced with fresh culture medium. 3‐(4,5‐dimethylthiazol‐2‐yl)‐2,5‐diphenyltetrazolium bromide (MTT reagent) was added at a final concentration of 1.2 mM for 2–4 h at 37 °C. Produced formazan was solubilized with DMSO and measured by 540 nm absorbance reading.
25.10^3 cells/96‐well transfected HBMECs or 9.10^3 cancer cells were seeded and monitored with an Incucyte S3 imaging system (Sartorius, Goettingen, Germany) using 10× objective every 2 h during 5 days. Confluency analyses were performed using the dedicated Incucyte analysis system.
(D–F) Proliferation was assessed by Incucyte during 5 days. Data are mean ± SEM of a representative experiment out of two independent experiments. Two‐way ANOVA followed by Bonferroni's multiple comparison test, ***P < 0.001, ****P < 0.0001.
(A-B) HBMECs transfected with empty vector (pRK5) or vectors encoding gD-HER2 WT, the truncated gD-
Proliferation was assessed by Incucyte during 5 days.
Representative quantification of the proliferation (B) is shown where data are mean ± sem (n=8-12).
ANOVA followed byBonferroni’s multiple comparison test, *** P<0.001, **** P<0.0001.
vehicle, 5-10 µM Ebselen oxide or 5 µM AG1478. Proliferation was assessed by MTT assay during 3 days.
Data are mean ± sem (n=3). Two-way ANOVA followed by Bonferroni’s multiple comparison test, * P<0.05 **

`O=C1c2ccccc2[Se](=O)N1c1ccccc1` (stereo not shown) [Ebselen oxide, ebselen oxide] was tested, and the inhibition at 10 µM (NCI-N87 [1]) was 45%, the “Reduction of phosphorylation level of gD-HER2-WT” value (gD-HER2-WT; HBMEC) was 40% and the “Reduction in the activation of ERK protein kinase” value (gD-HER2-WT; HBMEC gD-HER2-WT) was 65%. For the same compound, the “Effect on proliferation” value (NCI-N87 [2]) was “reduced proliferation”, the “Inhibition of p95HER2 activation” value (p95HER2) was “strongly inhibited” and the “Inhibition of cell proliferation induced by overexpression of V842I HER2” value ([3]; 5 μM, Incucyte 5 days) was “almost totally inhibited”. For the same compound, the “Inhibition of proliferation compared with AG1478 (5 μM)” value ([3]; MTT 3 days, V842I) was “similar”.

From paper PMC10552892, “Ebselen oxide and derivatives are new allosteric HER2 inhibitors for HER2‐positive cancers” (Molecular Oncology, 2023)
